{"source": "patent US20070020298A1", "about": "“Inhalant formulation containing sulfoalkyl ether gamma-cyclodextrin and corticosteroid” (priority 2003, published 2007)", "key": {"[1]": {"conditions": "during the time period of observation, concentrations typically used to solubilize pharmaceutical formulations; cited from earlier work"}, "[2]": {"conditions": "nasal spray in aqueous sulfobutylether-β-cyclodextrin buffer, healthy volunteers; cited from earlier work"}, "[3]": {"test": "Stability of mometasone furoate in aqueous SBE6.1-γ-CD solution by HPLC (Example 13)", "type": "physicochemical", "conditions": "for Stability by HPLC: 240 μg/mL in […] SBE-γ-CD", "method": "A similar study was conducted for mometasone furoate except that a pH of 3.5 or 4.5 was used.\nMometasone furoate. Citrate buffer solutions at a pH of 3.5 and 4.5 were prepared by mixing various portions of 3 mM citric acid with 3 mM sodium citrate. […] An excess of mometasone furoate was added to the vials and equilibrated on a rocker for three days. The samples were then filtered using a PVDF 0.22 μm syringe filter. Aliquots of the solutions were placed into serum vials with rubber stoppers and aluminum crimp seal caps, and stored at 25° C. and 40° C. Control samples were stored at 5° C. […] A stability-indicating HPLC method was used."}, "[4]": {"test": "Stability of fluticasone propionate in aqueous SBE6.1-γ-CD solution by HPLC (Example 13)", "type": "physicochemical", "conditions": "for Stability by HPLC: 240 μg/mL in 10% SBE-γ-CD", "method": "SBE-γ-CD is suitable for stabilizing corticosteroids in aqueous solutions. A stability study was conducted using fluticasone propionate in aqueous solutions stored at 25° C. or 40° C. having a pH of 4.5 or 6.0.\nFluticasone propionate. A citrate buffer solution at a pH of 4.5 was prepared by mixing various portions of 0.003 M citric acid with 0.003 M of trisodium citrate. A phosphate buffer solution at a pH of 6.0 was prepared by mixing various portions of 0.003 M monobasic sodium phosphate with 0.003 M of dibasic sodium phosphate. These stock solutions contained 10% w/v SBE-Gamma (D.S.=6.1). An excess of fluticasone propionate was added to the vials and equilibrated on a rocker for three days. The samples were then filtered using a PVDF 0.22 μm syringe filter. Aliquots of the solutions were placed into clear glass 2 mL serum vials with aluminum crimp caps and daikyo flurotec septums, and stored at 25° C. and 40° C. Control samples were stored at 5° C. but are not reported here. HPLC analysis of the samples was performed initially, (at time 0), and after 30, 60, 90, and 120 days storage. A stability-indicating HPLC method was used."}}, "note": "Where two headings read alike, the source gives them in different places."}
{"molecule": "CCC(=O)OCC(=O)[C@@]1(O)[C@@H](C)C[C@H]2[C@@H]3CCC4=CC(=O)C=C[C@]4(C)[C@@]3(Cl)[C@@H](O)C[C@@]21C", "note": "[Beclomethasone 21-monopropionate, beclomethasone 21-monopropionate]", "values": [{"measurement": "Solubility of beclomethasone form", "setting": "0.04 M SBE3.4 γ-CD", "value": 0.04, "unit": "M → 172.6 μg/mL"}, {"measurement": "Solubility of beclomethasone form", "setting": "0.04 M SBE5.24 γ-CD", "value": 0.04, "unit": "M → 139.8 μg/mL"}, {"measurement": "Solubility of beclomethasone form", "setting": "0.04 M SBE6.1 γ-CD", "value": 0.04, "unit": "M → 153.8 μg/mL"}, {"measurement": "Solubility of beclomethasone form", "setting": "0.04 M SBE6.7 β-CD", "value": 0.04, "unit": "M → 50.6 μg/mL"}, {"measurement": "Solubility of beclomethasone form", "setting": "0.04 M SBE7.5 γ-CD", "value": 0.04, "unit": "M → 122.4 μg/mL"}, {"measurement": "Solubility of beclomethasone form", "setting": "0.04 M γ-CD", "value": 0.04, "unit": "M → 9.4 μg/mL"}]}
{"molecule": "Sulfobutyl ether β-cyclodextrin [CAPTISOL]", "values": [{"measurement": "hemolytic behavior", "setting": "[1]", "value": "essentially no hemolytic behavior"}]}
{"molecule": "Cc1ncc2n1-c1ccc(Cl)cc1C(c1ccccc1F)=NC2", "note": "[midazolam]", "values": [{"measurement": "side effects", "setting": "[2]", "value": "No serious side effects"}]}
{"molecule": "C[C@@H]1C[C@H]2[C@@H]3CCC4=CC(=O)C=C[C@]4(C)[C@@]3(Cl)[C@@H](O)C[C@]2(C)[C@@]1(OC(=O)c1ccco1)C(=O)CCl", "note": "[Mometasone furoate, mometasone furoate]", "values": [{"measurement": "Stability by HPLC", "setting": "[3]; pH = 3.5/25° C., 1 Month", "value": 99.74, "unit": "Area %"}, {"measurement": "Stability by HPLC", "setting": "[3]; pH = 3.5/25° C., 1 Week", "value": 99.82, "unit": "Area %"}, {"measurement": "Stability by HPLC", "setting": "[3]; pH = 3.5/25° C., 2 Months", "value": 99.73, "unit": "Area %"}, {"measurement": "Stability by HPLC", "setting": "[3]; pH = 3.5/25° C., 2 Weeks", "value": 99.79, "unit": "Area %"}, {"measurement": "Stability by HPLC", "setting": "[3]; pH = 3.5/25° C., 3 Months", "value": 99.68, "unit": "Area %"}, {"measurement": "Stability by HPLC", "setting": "[3]; pH = 3.5/25° C., 6 Months", "value": 99.36, "unit": "Area %"}, {"measurement": "Stability by HPLC", "setting": "[3]; pH = 3.5/25° C., Initial", "value": 99.72, "unit": "Area %"}, {"measurement": "Stability by HPLC", "setting": "[3]; pH = 3.5/40° C., 1 Month", "value": 99.10, "unit": "Area %"}, {"measurement": "Stability by HPLC", "setting": "[3]; pH = 3.5/40° C., 1 Week", "value": 99.72, "unit": "Area %"}, {"measurement": "Stability by HPLC", "setting": "[3]; pH = 3.5/40° C., 2 Months", "value": 98.56, "unit": "Area %"}, {"measurement": "Stability by HPLC", "setting": "[3]; pH = 3.5/40° C., 2 Weeks", "value": 99.55, "unit": "Area %"}, {"measurement": "Stability by HPLC", "setting": "[3]; pH = 3.5/40° C., 3 Months", "value": 97.97, "unit": "Area %"}, {"measurement": "Stability by HPLC", "setting": "[3]; pH = 3.5/40° C., 6 Months", "value": 94.97, "unit": "Area %"}, {"measurement": "Stability by HPLC", "setting": "[3]; pH = 3.5/40° C., Initial", "value": 99.72, "unit": "Area %"}, {"measurement": "Stability by HPLC", "setting": "[3]; pH = 4.5/40° C., 1 Month", "value": 99.19, "unit": "Area %"}, {"measurement": "Stability by HPLC", "setting": "[3]; pH = 4.5/40° C., 1 Week", "value": 99.72, "unit": "Area %"}, {"measurement": "Stability by HPLC", "setting": "[3]; pH = 4.5/40° C., 2 Months", "value": 98.65, "unit": "Area %"}, {"measurement": "Stability by HPLC", "setting": "[3]; pH = 4.5/40° C., 2 Weeks", "value": 99.57, "unit": "Area %"}, {"measurement": "Stability by HPLC", "setting": "[3]; pH = 4.5/40° C., 3 Months", "value": 97.85, "unit": "Area %"}, {"measurement": "Stability by HPLC", "setting": "[3]; pH = 4.5/40° C., 6 Months", "value": 96.01, "unit": "Area %"}, {"measurement": "Stability by HPLC", "setting": "[3]; pH = 4.5/40° C., Initial", "value": 99.76, "unit": "Area %"}, {"measurement": "Stability by HPLC", "setting": "[3]; pH = 4.5 @ 25° C., 1 Month", "value": 99.73, "unit": "Area %"}, {"measurement": "Stability by HPLC", "setting": "[3]; pH = 4.5 @ 25° C., 1 Week", "value": 99.82, "unit": "Area %"}, {"measurement": "Stability by HPLC", "setting": "[3]; pH = 4.5 @ 25° C., 2 Months", "value": 99.71, "unit": "Area %"}, {"measurement": "Stability by HPLC", "setting": "[3]; pH = 4.5 @ 25° C., 2 Weeks", "value": 99.81, "unit": "Area %"}, {"measurement": "Stability by HPLC", "setting": "[3]; pH = 4.5 @ 25° C., 3 Months", "value": 99.62, "unit": "Area %"}, {"measurement": "Stability by HPLC", "setting": "[3]; pH = 4.5 @ 25° C., 6 Months", "value": 99.47, "unit": "Area %"}, {"measurement": "Stability by HPLC", "setting": "[3]; pH = 4.5 @ 25° C., Initial", "value": 99.76, "unit": "Area %"}, {"measurement": "T90", "setting": "[3]; both pH's (3.5 and 4.5) at 25° C.", "value": "exceed two years"}, {"measurement": "estimated shelf-life", "setting": "[3]; mometasone furoate formulation of the invention", "value": "greater than two years"}, {"measurement": "T90, stable for", "setting": "[3]; pH 4.5, 25° C.", "value": "six to eight years"}]}
{"molecule": "CCC(=O)O[C@]1(C(=O)SCF)[C@H](C)C[C@H]2[C@@H]3C[C@H](F)C4=CC(=O)C=C[C@]4(C)[C@@]3(F)[C@@H](O)C[C@@]21C", "note": "[Fluticasone propionate, fluticasone propionate]", "values": [{"measurement": "Stability by HPLC", "setting": "[4]; pH = 4.5/25° C., 1 Month", "value": 97.88, "unit": "Area %"}, {"measurement": "Stability by HPLC", "setting": "[4]; pH = 4.5/25° C., 2 Months", "value": 98.15, "unit": "Area %"}, {"measurement": "Stability by HPLC", "setting": "[4]; pH = 4.5/25° C., 3 Months", "value": 97.74, "unit": "Area %"}, {"measurement": "Stability by HPLC", "setting": "[4]; pH = 4.5/25° C., 4 Months", "value": 97.36, "unit": "Area %"}, {"measurement": "Stability by HPLC", "setting": "[4]; pH = 4.5/25° C., Initial", "value": 97.99, "unit": "Area %"}, {"measurement": "Stability by HPLC", "setting": "[4]; pH = 4.5/40° C., 1 Month", "value": 97.46, "unit": "Area %"}, {"measurement": "Stability by HPLC", "setting": "[4]; pH = 4.5/40° C., 2 Months", "value": 97.75, "unit": "Area %"}, {"measurement": "Stability by HPLC", "setting": "[4]; pH = 4.5/40° C., 3 Months", "value": 97.41, "unit": "Area %"}, {"measurement": "Stability by HPLC", "setting": "[4]; pH = 4.5/40° C., 4 Months", "value": 96.56, "unit": "Area %"}, {"measurement": "Stability by HPLC", "setting": "[4]; pH = 4.5/40° C., Initial", "value": 97.84, "unit": "Area %"}, {"measurement": "change in the amount of fluticasone propionate", "setting": "[4]; after a period of 4 months in SBE-γ-CD solution", "value": "little to no change"}, {"measurement": "T90", "setting": "[4]; at both pHs (4.5 and 6.0)", "value": "greater than five years"}, {"measurement": "estimated shelf-life", "setting": "[4]; fluticasone propionate formulation of the invention", "value": "greater than two years"}]}
{"molecule": "CCC(=O)O[C@]1(C(=O)CO)[C@@H](C)C[C@H]2[C@@H]3CCC4=CC(=O)C=C[C@]4(C)[C@@]3(Cl)[C@@H](O)C[C@@]21C", "note": "[Beclomethasone 17-monopropionate, beclomethasone 17-monopropionate]", "values": [{"measurement": "Solubility of beclomethasone form", "setting": "0.04 M SBE3.4 γ-CD", "value": 0.04, "unit": "M → 10621.6 μg/mL"}, {"measurement": "Solubility of beclomethasone form", "setting": "0.04 M SBE5.24 γ-CD", "value": 0.04, "unit": "M → 9500.8 μg/mL"}, {"measurement": "Solubility of beclomethasone form", "setting": "0.04 M SBE6.1 γ-CD", "value": 0.04, "unit": "M → 11666.9 μg/mL"}, {"measurement": "Solubility of beclomethasone form", "setting": "0.04 M SBE6.7 β-CD", "value": 0.04, "unit": "M → 6799.6 μg/mL"}, {"measurement": "Solubility of beclomethasone form", "setting": "0.04 M SBE7.5 γ-CD", "value": 0.04, "unit": "M → 8539.1 μg/mL"}, {"measurement": "Solubility of beclomethasone form", "setting": "0.04 M γ-CD", "value": 0.04, "unit": "M → 136.9 μg/mL"}]}
